Results as given in publication PMC7062083, “Metabolite identification, tissue distribution, excretion and preclinical pharmacokinetic studies of ET-26-HCl, a new analogue of etomidate” (Royal Society Open Science, 2020).
Where “and” joins values, the source holds several entries; their conditions need not be identical. Identical values can stand only once.

Experiments:
[1] = Plasma protein binding, equilibrium dialysis, beagle dog plasma; format: in vitro ADME
Description: (§1) The PPB of ET-26-HCl in mouse, rat, beagle dog, monkey and human plasma was determined according to the equilibrium dialysis method. In brief, 1 ml of control plasma samples in dialysis bag was incubated in 10 ml of PBS containing ET-26-HCl at a final concentration of 2.21 × 10^2, 1.77 × 10^3 and 3.54 × 10^3 […] at 4°C with an equilibrium time of 9 h to reach the mass balance binding condition. A 100 µl aliquots of the PBS buffer and the plasma in the dialysis bag were transferred to 2 ml EP tubes and diluted to 995 µl with PBS and analysed on the LC–MS/MS system. The PPB (fppb) was calculated as follows: fppb=Din−Dout/Din×100% , where Din is the plasma drug concentration in the dialysis bag and Dout is the dialysate drug concentration.

[2] = Metabolic stability in mouse liver microsomes; format: in vitro ADME
Description: (§2) Samples were analysed by LC–MS/MS as mentioned above.2.1 CLint, in vitro=0.693/t1/2/Cprotein, 2.2 CLint, in vivo=CLint, in vitro×Houston×LW/1000 2.3 andCLhep in vivo=HBF × fu ×CLint, in vivo/HBF + fu ×CLint, in vivo. Where Cprotein is microsomal protein concentration (mg ml^−1); Houston is Houston factor (45 mg of microsomal protein g^−1 liver); LW is liver weight (g) (per species); HBF is hepatic blood flow (ml min^−1) (per species); fu (two places) and later is unbound fraction (fu = 1 − %protein binding).

[3] = Metabolic stability in rat liver microsomes; format: in vitro ADME
Description: as §2

human plasma = experiment: Plasma protein binding, equilibrium dialysis, human plasma; format: in vitro ADME; details: overall over the three concentrations
Description: as §1

[4] = Identification of major metabolites in liver microsomes (UPLC-Q-TOF-MS); format: in vitro ADME, mouse, rat, beagle dog, monkey and human; details: 10 µM ET-26-HCl, 1 mg ml^−1 liver microsomes, NADPH, 1 h
Description: The major metabolites of ET-26-HCl in liver microsomes from mouse, rat, beagle dog, monkey and human were determined by the UPLC-Q-TOF-MS system.
Reaction mixture containing 10 µM ET-26-HCl, […] MgCl2 and 1 mg ml^−1 liver microsomes in Tris-HCl phosphate buffer (pH 7.4) was pre-incubated for 6 min at 37°C, followed by the addition of NADPH. After incubation for 1 h, methanol was added to stop the reaction. Samples were centrifuged at 11 000 r.p.m. for 5 min; supernatants were collected and air dried at 40°C. Residues were dissolved in 100 µl acetonitrile/water (1:1, v/v) and analysed by the UPLC-Q-TOF-MS.
The UPLC-Q-OF-MS system was equipped with a Waters Synapt G2-Si quadrupole time-of-flight mass spectrometer (Q-TOF-MS), an ESI source and an ACQUITY UPLC H-CLASS liquid chromatography system. The chromatographic separations were achieved on an ACQUITY UPLC BEH C18 column (2.1 × 100 mm, i.d. 1.7 µm, Waters, USA) kept at 45°C and a flow rate of 0.4 ml min^−1. The mobile phase consisted of 5 mM ammonium acetate with 0.1% formic acid (A) and acetonitrile with 0.1% formic acid (B). The optimized gradient elution programme followed was 0 min to 2.1 min, A/B (19/1, v/v); 2.1 min to 7.3 min, A/B (1/4, v/v); 7.3 min to 8.0 min, A/B (1/9, v/v); and 8.0 min to 10 min, A/B (19/1, v/v). The injection volume was 5 µl. The mass experiment was operated in positive ion modes under the following parameters: turbo spray temperature, 120°C; ion spray voltage, 3.0 kV. Nitrogen was used as the nebulizer and the auxiliary gas; meanwhile, the nebulizer gas was set to 650 l h^−1 and kept at 350°C. The collision energy was set at 5–10 V and the collision energy spread was 4–6 V. TOF-MS was scanned with the mass range of m/z 50–600 with 200 ms accumulation time. A 400 ng ml^−1 leu-enkephalin (m/z 556.2771) was selected as an external standard for mass–charge ratio correction at a flow rate of 5 µl min^−1.

[5] = Plasma protein binding, equilibrium dialysis, monkey plasma; format: in vitro ADME
Description: as §1

[6] = Dose tolerance pre-experiment in rats; format: in vivo
Description: For the PK study of beagle dogs and excretion test of rats, how do you identify those doses? As you described, beagle dogs in the 6 groups received three doses of ET-26- HCl: 1.045 mg/kg, 2.090 mg/kg, and 4.180 mg/kg as low (L), medium (M), and high (H) dose; however, the rats received a single 4.2 mg/kg dose of ET-26-HCl. Please provide the citations or calculation of […]
Thank the reviewer for this comment. According to the “Guidelines for non-clinical pharmacokinetic studies of drugs” of China Food and Drug Administration, the in vivo pharmacokinetic studies of animals should be performed with at least three dose groups, which the high dose is preferably close to the maximum tolerated dose, and the small dose is selected based on the limits of the effective dose of the animals. […]
kg and 1.045 mg/ kg for rat and dog, respectively, according to the results of the drug effect in the early stage of the cooperation laboratory. In our pre-experiment, individual rats appeared myoclonus after the 4-fold ED50 dose administration. When given the higher dose, some rats […]
Thus, the ED50, 2-fold ED50, and 4-fold ED50 dose were used as the low, middle and high dose group for the pharmacokinetic study in our previous research. Similar dosage design was used in our present work. The middle dose (4.2 mg/kg dose of ET-26-HCl) was utilized for the excretion test in rats. […]

Work on `COCCOC(=O)c1cncn1[C@H](C)c1ccccc1.Cl` [ET-26-HCl, (R)-2-methoxyethyl1-(1-phenylethyl)-1H-imidazole-5-carboxylate hydrochloride] yielded a fraction unbound at 9 h ([1]; beagle dog plasma, overall over the three concentrations, read-out: plasma protein binding rate (converted)) of 0.34, a fraction unbound at 9 h, 654 ng ml^−1 ([1]; dog plasma, measured concentration 654 ng ml^−1) of 0.345 and a fraction unbound at 9 h ([1]; dog plasma, measured concentration 2.62 × 10^3 ng ml^−1, read-out: protein binding (converted)) of 0.369. The fraction unbound at 9 h ([1]; dog plasma, measured concentration 5.23 × 10^3 ng ml^−1, read-out: protein binding (converted)) was 0.306, the “CLint, in vitro” value ([2]; mouse liver microsomes) was 629 ml min g^−1 protein and the “metabolic stability (in words)” value ([2]; mouse liver microsomes) was “not metabolically stable”. For the same compound, the “CLint, in vitro” value ([2]; mouse liver microsomes, Cprotein 0.33 mg ml^−1) was 629 ± 25.7 ml min^−1 g^−1 protein, the “extrapolated CLhep in vivo” value ([2]; mouse, from liver microsomes) was 2.8 ± 0.0 mL/min and the “extrapolated CLint, in vivo” value ([2]; mouse, from liver microsomes) was 42.4 ± 1.7 mL/min. The half-life ([2]; mouse, liver microsomes, pH 7.4, mouse liver microsomes, Cprotein 0.33 mg ml^−1) was under 5 min, the “CLint, in vitro” value ([3]; rat liver microsomes) was 984 ml min g^−1 protein and the “metabolic stability (in words)” value ([3]; rat liver microsomes) was “not metabolically stable”. The “CLint, in vitro” value ([3]; rat liver microsomes, Cprotein 0.33 mg ml^−1) was 984 ± 68.6 ml min^−1 g^−1 protein, the “extrapolated hepatic clearance normalized to body weight” value ([3]; rat, assumed body weight 0.25 kg (printed order)) was 1.78 L·h/kg and the “extrapolated CLhep in vivo” value ([3]; rat, from liver microsomes) was 19.1 mL/min and 19.1 ± 0.1 mL/min. For the same compound, the “extrapolated CLint, in vivo” value ([3]; rat, from liver microsomes) was 443 ± 30.9 mL/min, the “plasma protein binding rate” value (human plasma) was 68% and the “source (liver microsomes) in which detected” value [4] was “human and dog”. For the same compound, the “source (liver microsomes) in which detected” value ([4]; listed as M0) was “human, dog”, the fraction unbound at 9 h, 654 ng ml^−1 ([5]; measured concentration 654 ng ml^−1) was 0.387 and the fraction unbound at 9 h ([5]; measured concentration 2.62 × 10^3 ng ml^−1, read-out: protein binding (converted)) was 0.375 ± 0.0269. The fraction unbound at 9 h ([5]; measured concentration 5.23 × 10^3 ng ml^−1, read-out: protein binding (converted)) was 0.357, the fraction unbound at 9 h ([5]; overall over the three concentrations, read-out: plasma protein binding rate (converted)) was 0.373 and the adverse signs observed ([6]; individual rats, after the 4-fold ED50 dose) was “myoclonus”. The adverse signs observed ([6]; some rats, dose higher than 4-fold ED50) was “convulsions and even died”.
